Experimental data as given in PMC8949615, “Inhibitory Effect of Polyphenols from the Whole Green Jackfruit Flour against α-Glucosidase, α-Amylase, Aldose Reductase and Glycation at Multiple Stages and Their Interaction: Inhibition Kinetics and Molecular Simulations” (Molecules, 2022).
Where “and” joins values, the source holds several entries; their conditions need not be identical. Equal entries are not always repeated. Marks after values point to notes of the source that are not given here.

Tests used:
[1] = ABTS radical scavenging activity; conditions: mean ± SE
yeast α-glucosidase = type: biochemical; conditions: mean ± SE
HSA/fructose system [2] = assay: HSA glycation: protein thiol group protection; type: biochemical, human; conditions: for thiol shielding / thiol group protection: 100 µg/mL; for Thiols Group: HSA/fructose
α-amylase = molecular target: T1, α-amylase (Sus scrofa, UniProt P00690); assay: α-amylase inhibition kinetics (Lineweaver-Burk, secondary plot); type: biochemical, porcine
T1 sequence (P00690 16-511): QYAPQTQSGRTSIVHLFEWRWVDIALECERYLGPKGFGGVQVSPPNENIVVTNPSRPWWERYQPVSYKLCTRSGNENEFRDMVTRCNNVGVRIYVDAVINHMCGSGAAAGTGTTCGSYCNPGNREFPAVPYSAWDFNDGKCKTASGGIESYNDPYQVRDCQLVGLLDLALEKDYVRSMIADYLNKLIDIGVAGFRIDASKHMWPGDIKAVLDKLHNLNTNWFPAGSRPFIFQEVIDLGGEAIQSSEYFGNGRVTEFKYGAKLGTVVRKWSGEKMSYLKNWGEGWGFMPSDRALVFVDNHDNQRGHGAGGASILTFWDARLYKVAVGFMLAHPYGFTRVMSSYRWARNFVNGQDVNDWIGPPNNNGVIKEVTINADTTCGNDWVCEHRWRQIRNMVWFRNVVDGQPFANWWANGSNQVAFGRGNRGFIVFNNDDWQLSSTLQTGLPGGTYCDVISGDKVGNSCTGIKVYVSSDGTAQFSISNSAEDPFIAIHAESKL

HSA/fructose system [3] = assay: HSA glycation, intermediate stage: protein carbonyls; type: biochemical, human
HSA/fructose system [4] = assay: HSA glycation, early stage: fructosamine (NBT test); type: biochemical, human; design: dose or concentration left out as unconfirmed
α-glucosidase = α-glucosidase inhibition kinetics (Lineweaver-Burk, secondary plot); type: biochemical, yeast; conditions: for Mode of Inhibition, α-Glucosidase: from double reciprocal plot; for Ki, α-Glucosidase: secondary plot, mean ± SE
[5] = DPPH radical scavenging activity; conditions: mean ± SE
aldose reductase [6] = molecular target: T2, aldose reductase (Homo sapiens, UniProt P15121); assay: aldose reductase inhibition kinetics (Lineweaver-Burk, secondary plot); type: biochemical; conditions: for Mode of Inhibition, Aldose reductase: from double reciprocal plot
[7] = superoxide radical scavenging activity; conditions: mean ± SE
[8] = design: method as in earlier work; conditions: ref [9] of the supplement, cited from earlier work
aldose reductase [9] = molecular target: T2, aldose reductase; assay: aldose reductase inhibition assay; type: biochemical; conditions: mean ± SE
[10] = molecular target: T3, type-VI B porcine pancreatic α-amylase (Sus scrofa, UniProt P00690); assay: α-amylase inhibition assay; type: biochemical; conditions: mean ± SE
T3 sequence (P00690 16-511): T1 sequence (P00690 16-511)

| SMILES | EC50 Radical Scavenging Activities ABTS [1] | IC50 α-Glucosidase (yeast α-glucosidase) | thiol shielding / thiol group protection (HSA/fructose system [2]) | Thiols Group (HSA/fructose system [2]; week 1) | Thiols Group (HSA/fructose system [2]; week 2) | Thiols Group (HSA/fructose system [2]; week 3) | Vmax, α-Amylase (α-amylase; inhibitor at IC40) | Protein carbonyl Content (HSA/fructose system [3]; week 1) | Protein carbonyl Content (HSA/fructose system [3]; week 2) | Protein carbonyl Content (HSA/fructose system [3]; week 3) | Fructosamine (HSA/fructose system [4]; week 1) | Fructosamine (HSA/fructose system [4]; week 2) | Fructosamine (HSA/fructose system [4]; week 3) | Mode of Inhibition, α-Glucosidase (α-glucosidase) | Vmax, α-Glucosidase (α-glucosidase; inhibitor at IC20) | Vmax, α-Glucosidase (α-glucosidase; inhibitor at IC40) | Vmax, α-Glucosidase (α-glucosidase; inhibitor at IC60) | EC50 Radical Scavenging Activities DPPH [5] | Mode of Inhibition, Aldose reductase (aldose reductase [6]) | EC50 Radical Scavenging Activities Superoxide [7] | other results |
| --- | --- | --- | --- | --- | --- | --- | --- | --- | --- | --- | --- | --- | --- | --- | --- | --- | --- | --- | --- | --- | --- |
| O=C(O)C=Cc1ccc(O)c(O)c1 [Caffeic acid, 3-(3,4-Dihydroxyphenyl)-2-propenoic acid] | 12.44 ± 1.60 ^b μg/mL | 8.00 ± 0.40 ^a µg/mL | 74–83% | 0.69 ± 0.55 ^a nmol/mg protein | 0.79 ± 0.05 ^a nmol/mg protein | 0.80 ± 0.88 ^a nmol/mg protein | 25.75 10^3(µM/min)^−1 | 0.49 ± 2.17 ^b nmol/mg protein | 0.57 ± 1.25 ^b nmol/mg protein | 0.57 ± 2.22 ^b nmol/mg protein | 26.82 ± 0.14 ^a mmol/mg Protein | 27.06 ± 0.13 ^a mmol/mg Protein | 28.02 ± 1.04 ^a mmol/mg Protein | Competitive | 39.98 10^3(µM/min)^−1 | 40.40 10^3(µM/min)^−1 | 40.37 10^3(µM/min)^−1 | 18.50 ± 0.08 ^b μg/mL | Non-competitive | 30.13 ± 2.05 ^b μg/mL | Ki, α-Glucosidase (α-glucosidase; listed as CA): 1.03 mg and 0.52 ± 0.02 mg; Vmax, Aldose reductase (aldose reductase [6]; inhibitor at IC20): 13.35 10^3(µM/min)^−1; Vmax, Aldose reductase (aldose reductase [6]; inhibitor at IC40): 10.15 10^3(µM/min)^−1; Vmax, Aldose reductase (aldose reductase [6]; inhibitor at IC60): 5.05 10^3(µM/min)^−1 |
| COc1ccc(O)c(C(C)(C)C)c1 [BHA, butylated hydroxyl anisole, reference compound] | 31.00 ± 0.55 ^d μg/mL | – | – | – | – | – | – | – | – | – | – | – | – | – | – | – | – | 40.25 ± 0.30 ^d μg/mL | – | 64.75 ± 0.13 ^d μg/mL | – |
| N=C(N)NN [Aminoguanidine, aminoguanidine, reference compound] | – | – | 71% | 0.95 ± 1.46 ^b nmol/mg protein | 1.04 ± 1.00 ^b nmol/mg protein | 1.17 ± 0.89 ^b nmol/mg protein | – | 0.64 ± 0.54 ^e nmol/mg protein | 0.66 ± 1.05 ^e nmol/mg protein | 0.70 ± 1.11 ^e nmol/mg protein | 28.50 ± 1.16 ^d mmol/mg Protein | 30.00 ± 1.00 ^d mmol/mg Protein | 31.75 ± 0.97 ^d mmol/mg Protein | – | – | – | – | – | – | – | – |
| O=c1c(O)c(-c2ccc(O)c(O)c2)oc2cc(O)cc(O)c12 [Quercetin] | – | – | – | – | – | – | – | – | – | – | – | – | – | – | – | – | – | – | – | – | adverse effects on serum electrolytes, renal, haematological, and liver function blood parameters ([8]; >1000 mg/day for several months): no adverse effects; safety and tolerability in human clinical trials [8]: safe and well-tolerated |
| COc1cc(C(=O)O)cc(OC)c1O [Syringic acid, 4-Hydroxy-3,5-dimethoxybenzoic acid] | 11.40 ± 2.04 ^a μg/mL | 7.50 ± 1.05 ^a µg/mL | 74–83% | 0.64 ± 0.62 ^a nmol/mg protein | 0.76 ± 0.53 ^a nmol/mg protein | 0.78 ± 0.34 ^a nmol/mg protein | 51.11 10^3(µM/min)^−1 | 0.49 ± 1.06 ^c nmol/mg protein | 0.54 ± 0.62 ^c nmol/mg protein | 0.54 ± 1.32 ^c nmol/mg protein | 26.30 ± 1.21 ^b mmol/mg Protein | 26.99 ± 1.90 ^b mmol/mg Protein | 26.41 ± 1.18 ^b mmol/mg Protein | Competitive | 33.55 10^3(µM/min)^−1 | 33.43 10^3(µM/min)^−1 | 33.79 10^3(µM/min)^−1 | 16.00 ± 0.13 ^a μg/mL | Non-competitive | 28.00 ± 1.19 ^a μg/mL | IC50 (aldose reductase [9]): 15.1 µM; Mode of Inhibition, α-Amylase (α-amylase; from double reciprocal plot): Competitive; Vmax, α-Amylase (α-amylase; inhibitor at IC20): 51.10 10^3(µM/min)^−1; Vmax, α-Amylase (α-amylase; inhibitor at IC60): 50.95 10^3(µM/min)^−1; Ki (α-amylase; secondary plot, mean ± SE): 6.31 µM; IC50 [10]: 127 µM; Ki, α-Glucosidase (α-glucosidase): 0.96 ± 0.22 mg; Ki, α-Glucosidase (α-glucosidase; listed as SA): 1.25 mg; Vmax, Aldose reductase (aldose reductase [6]; inhibitor at IC20): 34.47 10^3(µM/min)^−1; Vmax, Aldose reductase (aldose reductase [6]; inhibitor at IC40): 20.05 10^3(µM/min)^−1; Vmax, Aldose reductase (aldose reductase [6]; inhibitor at IC60): 11.50 10^3(µM/min)^−1; Ki (aldose reductase [6]; secondary plot, mean ± SE): 8.28 µM |
